Measured values as given in patent US20100291074A1, “CYCLOPHILIN D-AMYLOID BETA INTERACTION POTENTIATES MITOCHONDRIAL DYSFUNCTION IN A TRANSGENIC MOUSE MODEL OF ALZHEIMER'S DISEASE” (COLUMBIA UNIVERSITY IN THE CITY OF NEW YORK, priority 2007, published 2010).
“Also recorded” adds a separate entry of the source.

System: cultured cortical neurons
Test: Mitochondrial membrane potential (TMRM) in cultured neurons
Assay type: cell-based, mice
Conditions: for TMRM-positive neurons after H2O2: H2O2 one hour, FACS
Experimental: FIGS. 5. […] (A) Western blot of cultured cortical neuron derived from nonTg and CypD-deficient mice was performed by specific α-CypD IgG. […] (F-G) FACS analysis of TMRM staining in nonTg and CypD−/− neurons treated with increasing concentrations of H2O2 for one hour. (G) Analyses of % TMRM positive neurons combined 3-4 independent experiments. […] (H-I) TMRM staining in H2O2-treated nonTg and CypD−/− neurons as shown by confocal microscopy in live cells. (J-L). FACS analysis of propidium iodide (PI) staining in nonTg and CypD−/−neurons treated with H2O2 for one hour. Percentages of PI-positive and -negative cells were shown as red line and black line, respectively.
Mitochondrial membrane potential […] was determined in primary cultured neuron derived from nonTg and Tg CypD−/− mice.
Murine cortical neurons were cultured as described. Briefly, murine cortex were dissected from Day 1 pups of nonTg and Tg CypD−/− mice, dissociated with 0.05% trypsin, and triturated in ice-cold Neurobasal A medium. Cells were then centrifuged at 200 g for 5 min to get rid of the debris. The resulting pellets were resuspended in culture medium (neurobasal A with 2% B27 supplement, 0.5 mM L-glutamine, 50 U/ml penicillin, and 50 μg/ml streptomycin) and plated onto poly-L-lysine-coated culture plates with an appropriate density. Aβ or H2O2 was added to the cultured medium at day 5 cultured neurons.
Primary cultured neurons derived from nonTg and CypD-deficient mice were incubated with 2 μM oligomeric Aβ, or H2O2 for various time points. The mitochondrial ROS was detected with 1 μM MitoSox staining The cytochrome c release was assessed by ELISA (Active Motif). Mitochondrial membrane potential was determined by TMRM labeling and analyzed by flow cytometry as described above. Apoptosis was assessed by TUNEL assay using in situ cell death detection kit (Roche).

Structure (SMILES)	mitochondrial membrane potential ΔΨm (TMRM) (FCCP (1 μM), nonTg and CypD−/− neurons)	TMRM-positive neurons after H2O2 (CypD−/− neurons, from 73% before) [%]	TMRM-positive neurons after H2O2 (nonTg neurons, from 73.8% before) [%]
N#CC(C#N)=NNc1ccc(OC(F)(F)F)cc1 [FCCP, carbonyl cyanide p-(trifluoromethoxy) phenylhydrazone]	able to dissipate mitochondria ΔΨ; also recorded: dissipated membrane ΔΨm	–	–
OO [H2O2]	–	32	5.5
